# Results reported in US8586551B2, “18-membered macrocycles and analogs thereof” (Optimer Pharmaceuticals, Inc., priority 2005, dated 2013).
# Where two headings read alike, the source gives them in different places.
# Legend:
# Type in all cases: cell-based
# Clostridium glycolicum = assay: MIC against intestinal bacteria: Clostridium glycolicum; details: Clostridium glycolicum (9)
# [1] = tested on: Streptococcus, formerly S. milleri group; assay: MIC against intestinal bacteria: Streptococcus, formerly S. milleri group
# Clostridium bifermentans = assay: MIC against intestinal bacteria: Clostridium bifermentans; details: Clostridium bifermentans (9)
# [2] = tested on: C. difficile clinical isolates; assay: MIC via agar dilution versus 110 clinical isolates of C. difficile
smiles,measurement,setting,value
"CCc1c(Cl)c(O)c(Cl)c(O)c1C(=O)O[C@H]1[C@H](O)[C@H](OC)[C@H](OCC2=CC=CC[C@H](O)C(C)=C[C@H](CC)[C@@H](O[C@@H]3OC(C)(C)[C@@H](OC(=O)C(C)C)[C@H](O)[C@@H]3O)C(C)=CC(C)=CC[C@@H]([C@@H](C)O)OC2=O)O[C@@H]1C [R-Tiacumicin B, 3-[[[6-Deoxy-4-O-(3,5-dichloro-2-ethyl-4,6-dihydroxybenzoyl)-2-O-methyl-β-D-mannopyranosyl]oxy]-methyl]-12(R)-[[6-deoxy-5-C-methyl-4-O-(2-methyl-1-oxopropyl)-β-D-lyxo-hexopyranosyl]oxy]-11(S)-ethyl-8(S)-hydroxy-18(S)-(1(R)-hydroxyethyl)-9,13,15-trimethyloxacyclooctadeca-3,5,9,13,15-pentaene-2-one]",MIC range,Clostridium glycolicum,0.06 to 1 µg/mL
same,MIC50,[1],32 µg/mL
same,MIC90,[1],32 µg/mL
same,MIC range,[1]; formerly S. milleri group (14),16 to 64 µg/mL
same,MIC range,Clostridium bifermentans,0.06 µg/mL
same,MIC,[2]; Clostridioides difficile,0.125 µg/mL
same,MIC,"[2]; Clostridioides difficile, isolate 61 5930, read-out: MIC",0.03 µg/mL
same,MIC,"[2]; Clostridioides difficile, isolate 65 5967, read-out: MIC",0.06 µg/mL
same,MIC,"[2]; Clostridioides difficile, isolate 68 6368, read-out: MIC",0.03 µg/mL
same,MIC,"[2]; Clostridioides difficile, isolate 77 6390, read-out: MIC",0.06 µg/mL
same,MIC,"[2]; Clostridioides difficile, isolate 82 6329, read-out: MIC",0.06 µg/mL
same,MIC,"[2]; Clostridioides difficile, isolate 83 6330, read-out: MIC",0.06 µg/mL
same,MIC,"[2]; Clostridioides difficile, isolate 85 6332, read-out: MIC",0.06 µg/mL
same,MIC,"[2]; Clostridioides difficile, isolate 86 6333, read-out: MIC",0.03 µg/mL
same,MIC,"[2]; Clostridioides difficile, isolate 96 6348, read-out: MIC",0.06 µg/mL
same,MIC,"[2]; Clostridioides difficile, isolate 103 6068, read-out: MIC",0.06 µg/mL
same,MIC,"[2]; Clostridioides difficile, isolate 104 6060, read-out: MIC",0.03 µg/mL
same,MIC,"[2]; Clostridioides difficile, isolate 105 6071, read-out: MIC",0.03 µg/mL
same,MIC,"[2]; Clostridioides difficile, isolate 106 6078, read-out: MIC",0.03 µg/mL
same,MIC,"[2]; Clostridioides difficile, isolate 107 6079, read-out: MIC",0.06 µg/mL
same,MIC,"[2]; Clostridioides difficile, isolate 111 6279, read-out: MIC",0.03 µg/mL
same,MIC,"[2]; Clostridioides difficile, isolate 112 6280, read-out: MIC",0.06 µg/mL
same,MIC,"[2]; Clostridioides difficile, isolate 113 6304, read-out: MIC",0.06 µg/mL
same,MIC,"[2]; Clostridioides difficile, isolate 114 386, read-out: MIC",0.06 µg/mL
same,MIC,"[2]; Clostridioides difficile, isolate 116 5702, read-out: MIC",0.06 µg/mL
same,MIC,"[2]; Clostridioides difficile, isolate 117 6026, read-out: MIC",0.06 µg/mL
same,MIC,"[2]; Clostridioides difficile, isolate 120 6057, read-out: MIC",0.03 µg/mL
same,MIC,"[2]; Clostridioides difficile, isolate 121 6072, read-out: MIC",0.06 µg/mL
same,MIC,"[2]; Clostridioides difficile, isolate AB2 1725, read-out: MIC",0.06 µg/mL
same,MIC,"[2]; Clostridioides difficile, isolate AC1 1546, read-out: MIC",0.06 µg/mL
same,MIC,"[2]; Clostridioides difficile, isolate AJ1 1557, read-out: MIC",0.06 µg/mL
same,MIC,"[2]; Clostridioides difficile, isolate AL1 1753, read-out: MIC",0.06 µg/mL
same,MIC,"[2]; Clostridioides difficile, isolate B1 832, read-out: MIC",0.06 µg/mL
same,MIC,"[2]; Clostridioides difficile, isolate BH1 4506, read-out: MIC",0.06 µg/mL
same,MIC,"[2]; Clostridioides difficile, isolate BM1 1453, read-out: MIC",0.06 µg/mL
same,MIC,"[2]; Clostridioides difficile, isolate BR1 1321, read-out: MIC",0.06 µg/mL
same,MIC,"[2]; Clostridioides difficile, isolate BT1 706, read-out: MIC",0.06 µg/mL
same,MIC,"[2]; Clostridioides difficile, isolate D1 1360, read-out: MIC",0.03 µg/mL
same,MIC,"[2]; Clostridioides difficile, isolate E1 816, read-out: MIC",0.06 µg/mL
same,MIC,"[2]; Clostridioides difficile, isolate J1 5971, read-out: MIC",0.06 µg/mL
same,MIC,"[2]; Clostridioides difficile, isolate J7 4224, read-out: MIC",0.03 µg/mL
same,MIC,"[2]; Clostridioides difficile, isolate J9 4478, read-out: MIC",0.06 µg/mL
same,MIC,"[2]; Clostridioides difficile, isolate O1 1861, read-out: MIC",0.06 µg/mL
same,MIC,"[2]; Clostridioides difficile, isolate Y1 5639, read-out: MIC",0.06 µg/mL
same,MIC,"[2]; Clostridioides difficile, isolate Y2 1459, read-out: MIC",0.06 µg/mL
same,MIC,"[2]; Clostridioides difficile, isolate Z1 3036, read-out: MIC",0.03 µg/mL
same,MIC,[2]; isolate 64 5940,0.125 µg/mL
same,MIC,[2]; isolate 67 6367,0.125 µg/mL
same,MIC,[2]; isolate 70 6376,0.125 µg/mL
same,MIC,[2]; isolate 71 6379,0.125 µg/mL
same,MIC,[2]; isolate 72 6380,0.125 µg/mL
same,MIC,[2]; isolate 75 6388,0.125 µg/mL
same,MIC,[2]; isolate 76 6389,0.125 µg/mL
same,MIC,[2]; isolate 80 6327,0.125 µg/mL
same,MIC,[2]; isolate 81 6328,0.125 µg/mL
same,MIC,[2]; isolate 84 6331,0.125 µg/mL
same,MIC,[2]; isolate 87 6334,0.125 µg/mL
same,MIC,[2]; isolate 88 6335,0.125 µg/mL
same,MIC,[2]; isolate 90 6338,0.125 µg/mL
